{"source": "paper PMC9892271", "about": "(Journal of medicinal chemistry, 2023)", "key": {"[1]": {"target": "T1, NTMT1 (Homo sapiens, UniProt Q9BV86)", "T1 sequence (Q9BV86 1-222)": "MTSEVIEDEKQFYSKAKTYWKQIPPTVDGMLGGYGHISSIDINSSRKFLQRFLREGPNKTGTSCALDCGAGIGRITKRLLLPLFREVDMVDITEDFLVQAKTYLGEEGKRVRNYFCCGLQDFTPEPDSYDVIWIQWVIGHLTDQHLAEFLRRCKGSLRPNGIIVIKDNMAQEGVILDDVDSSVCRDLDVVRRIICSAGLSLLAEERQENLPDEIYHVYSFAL"}, "[2]": {"system": "me3-RCC1 and me3-SET in HEK293 cells", "assay": "cellular N-methylation level study", "type": "cell-based"}, "[3]": {"target": "T2, G9a (Homo sapiens, UniProt Q96KQ7)", "T2 sequence (Q96KQ7 1-1210)": "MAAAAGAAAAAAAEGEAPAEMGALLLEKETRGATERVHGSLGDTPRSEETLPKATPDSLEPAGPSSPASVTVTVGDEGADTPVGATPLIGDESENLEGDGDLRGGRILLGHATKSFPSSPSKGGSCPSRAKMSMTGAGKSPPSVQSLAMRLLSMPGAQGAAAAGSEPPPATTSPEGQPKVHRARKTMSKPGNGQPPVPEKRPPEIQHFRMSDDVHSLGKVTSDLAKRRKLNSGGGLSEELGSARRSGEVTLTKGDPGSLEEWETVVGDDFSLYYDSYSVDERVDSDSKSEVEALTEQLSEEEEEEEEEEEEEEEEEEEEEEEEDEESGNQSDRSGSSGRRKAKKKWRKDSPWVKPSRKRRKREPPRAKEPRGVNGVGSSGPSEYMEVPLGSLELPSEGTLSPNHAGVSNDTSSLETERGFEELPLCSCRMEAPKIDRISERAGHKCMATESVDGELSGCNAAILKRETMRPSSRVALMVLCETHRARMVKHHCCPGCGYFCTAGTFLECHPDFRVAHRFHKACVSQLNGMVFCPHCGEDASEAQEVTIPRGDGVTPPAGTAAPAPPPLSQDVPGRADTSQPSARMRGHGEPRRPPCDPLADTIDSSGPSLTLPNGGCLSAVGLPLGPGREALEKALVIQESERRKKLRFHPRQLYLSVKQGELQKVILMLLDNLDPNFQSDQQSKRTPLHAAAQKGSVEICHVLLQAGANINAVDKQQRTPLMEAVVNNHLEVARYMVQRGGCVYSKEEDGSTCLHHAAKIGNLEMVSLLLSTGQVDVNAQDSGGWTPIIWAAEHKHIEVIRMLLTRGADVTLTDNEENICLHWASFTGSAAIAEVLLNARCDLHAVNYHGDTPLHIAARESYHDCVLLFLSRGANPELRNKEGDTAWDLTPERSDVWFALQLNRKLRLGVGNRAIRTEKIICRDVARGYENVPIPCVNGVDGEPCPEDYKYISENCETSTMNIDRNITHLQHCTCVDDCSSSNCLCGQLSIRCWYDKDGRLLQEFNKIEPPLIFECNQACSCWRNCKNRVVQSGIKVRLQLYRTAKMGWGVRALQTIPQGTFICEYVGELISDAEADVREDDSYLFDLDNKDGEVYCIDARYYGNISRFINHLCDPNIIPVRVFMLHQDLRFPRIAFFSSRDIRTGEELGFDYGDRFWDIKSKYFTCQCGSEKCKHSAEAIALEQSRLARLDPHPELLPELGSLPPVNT", "assay": "SAHH-coupled selectivity assay, G9a", "type": "biochemical"}, "[4]": {"target": "T3, NNMT (Homo sapiens, UniProt P40261)", "T3 sequence (P40261 1-264)": "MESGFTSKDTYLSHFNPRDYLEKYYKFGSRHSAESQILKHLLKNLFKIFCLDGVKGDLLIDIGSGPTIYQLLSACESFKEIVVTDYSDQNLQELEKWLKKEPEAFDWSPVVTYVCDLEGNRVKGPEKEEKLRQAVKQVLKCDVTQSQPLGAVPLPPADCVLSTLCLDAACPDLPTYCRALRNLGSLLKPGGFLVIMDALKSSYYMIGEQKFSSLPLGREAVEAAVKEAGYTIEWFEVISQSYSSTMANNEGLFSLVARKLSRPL", "assay": "SAHH-coupled selectivity assay, NNMT", "type": "biochemical"}, "[5]": {"target": "SAHH (Homo sapiens, UniProt P23526)", "sequence (P23526 whole entry, species assumed)": "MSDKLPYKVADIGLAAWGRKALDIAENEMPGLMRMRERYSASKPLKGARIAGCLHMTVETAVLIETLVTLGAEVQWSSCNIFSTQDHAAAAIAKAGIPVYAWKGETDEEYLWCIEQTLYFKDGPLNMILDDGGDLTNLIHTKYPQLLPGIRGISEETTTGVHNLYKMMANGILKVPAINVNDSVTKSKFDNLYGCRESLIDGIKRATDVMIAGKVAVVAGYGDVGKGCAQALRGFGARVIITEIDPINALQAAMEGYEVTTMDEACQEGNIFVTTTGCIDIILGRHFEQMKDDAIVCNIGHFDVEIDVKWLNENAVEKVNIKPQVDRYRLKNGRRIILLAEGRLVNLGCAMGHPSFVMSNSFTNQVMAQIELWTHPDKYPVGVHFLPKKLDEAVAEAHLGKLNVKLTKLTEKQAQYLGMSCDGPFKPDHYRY", "assay": "selectivity assay, coupling enzyme SAHH", "type": "biochemical"}, "[6]": {"target": "PRMT1 (Homo sapiens, UniProt Q99873)", "sequence (Q99873 whole entry, species assumed)": "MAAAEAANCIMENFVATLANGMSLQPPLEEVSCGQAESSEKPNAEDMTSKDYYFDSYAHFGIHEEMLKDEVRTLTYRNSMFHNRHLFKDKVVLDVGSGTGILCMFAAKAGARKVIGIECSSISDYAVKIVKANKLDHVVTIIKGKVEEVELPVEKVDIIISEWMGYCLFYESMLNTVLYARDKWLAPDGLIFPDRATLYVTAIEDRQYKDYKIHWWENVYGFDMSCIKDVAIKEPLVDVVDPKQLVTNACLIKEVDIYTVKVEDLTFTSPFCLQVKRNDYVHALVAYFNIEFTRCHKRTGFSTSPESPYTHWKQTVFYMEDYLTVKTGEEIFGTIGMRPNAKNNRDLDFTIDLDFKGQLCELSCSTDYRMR", "assay": "SAHH-coupled selectivity assay, PRMT1", "type": "biochemical"}, "[7]": {"target": "T4, SETD7 (Homo sapiens, UniProt Q8WTS6)", "T4 sequence (Q8WTS6 1-366)": "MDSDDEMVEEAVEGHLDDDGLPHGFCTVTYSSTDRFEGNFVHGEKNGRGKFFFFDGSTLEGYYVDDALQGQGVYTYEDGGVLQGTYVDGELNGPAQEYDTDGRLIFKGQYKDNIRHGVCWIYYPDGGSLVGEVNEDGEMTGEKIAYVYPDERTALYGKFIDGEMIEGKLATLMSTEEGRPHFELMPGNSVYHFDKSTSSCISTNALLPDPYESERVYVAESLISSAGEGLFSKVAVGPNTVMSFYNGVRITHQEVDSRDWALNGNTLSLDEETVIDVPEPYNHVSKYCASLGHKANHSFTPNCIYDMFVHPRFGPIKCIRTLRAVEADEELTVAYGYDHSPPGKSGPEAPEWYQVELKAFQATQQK", "assay": "SAHH-coupled selectivity assay, SETD7", "type": "biochemical"}, "[8]": {"target": "MLL1 complex (Homo sapiens, UniProt Q03164)", "sequence (Q9C005 whole entry)": "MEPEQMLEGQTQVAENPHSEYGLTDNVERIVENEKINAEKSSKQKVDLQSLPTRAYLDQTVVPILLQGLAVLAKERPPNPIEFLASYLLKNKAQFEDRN", "sequence (Q03164 3745-3969)": "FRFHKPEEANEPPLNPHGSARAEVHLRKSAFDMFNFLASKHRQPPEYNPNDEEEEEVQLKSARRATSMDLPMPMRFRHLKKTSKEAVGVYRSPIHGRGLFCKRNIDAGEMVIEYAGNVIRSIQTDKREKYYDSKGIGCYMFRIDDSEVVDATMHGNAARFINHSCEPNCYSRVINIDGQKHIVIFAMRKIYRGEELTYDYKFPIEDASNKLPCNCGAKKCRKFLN", "sequence (Q15291 whole entry, further chain)": "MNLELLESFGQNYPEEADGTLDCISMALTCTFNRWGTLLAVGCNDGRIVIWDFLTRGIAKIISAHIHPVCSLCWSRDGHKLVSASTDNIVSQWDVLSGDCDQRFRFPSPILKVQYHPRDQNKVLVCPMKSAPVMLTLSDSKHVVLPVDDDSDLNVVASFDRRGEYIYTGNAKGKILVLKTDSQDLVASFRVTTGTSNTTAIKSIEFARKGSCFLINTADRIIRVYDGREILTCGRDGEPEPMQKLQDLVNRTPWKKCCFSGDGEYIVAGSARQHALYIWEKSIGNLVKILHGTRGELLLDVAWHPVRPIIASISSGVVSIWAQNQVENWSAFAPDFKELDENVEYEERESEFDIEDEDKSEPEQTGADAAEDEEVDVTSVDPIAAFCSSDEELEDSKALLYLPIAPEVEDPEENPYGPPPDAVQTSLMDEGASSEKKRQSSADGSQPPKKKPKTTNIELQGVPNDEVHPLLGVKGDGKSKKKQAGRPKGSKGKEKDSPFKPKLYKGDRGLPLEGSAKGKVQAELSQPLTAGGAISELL", "sequence (Q9UBL3 96-628, further chain)": "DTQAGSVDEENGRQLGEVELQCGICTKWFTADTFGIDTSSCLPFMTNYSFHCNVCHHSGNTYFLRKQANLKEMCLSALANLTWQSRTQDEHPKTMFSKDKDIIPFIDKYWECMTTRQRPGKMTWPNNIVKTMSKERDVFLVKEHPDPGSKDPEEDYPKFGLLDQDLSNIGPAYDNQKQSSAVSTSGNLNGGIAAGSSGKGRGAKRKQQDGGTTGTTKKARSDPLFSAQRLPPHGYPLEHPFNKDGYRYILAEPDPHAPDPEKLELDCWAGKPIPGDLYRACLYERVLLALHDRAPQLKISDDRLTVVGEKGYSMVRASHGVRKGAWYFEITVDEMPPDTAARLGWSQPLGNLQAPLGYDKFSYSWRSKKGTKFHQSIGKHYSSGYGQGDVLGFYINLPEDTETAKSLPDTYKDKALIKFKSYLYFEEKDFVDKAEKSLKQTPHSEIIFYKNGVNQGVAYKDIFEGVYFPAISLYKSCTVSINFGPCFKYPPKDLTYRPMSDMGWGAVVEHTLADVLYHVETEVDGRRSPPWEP", "assay": "SAM-dependent methyltransferase panel", "type": "biochemical", "conditions": "single dose of 50 μM"}, "[9]": {"target": "TbPRMT7 (Trypanosoma brucei brucei, UniProt Q582G4)", "sequence (Q582G4 whole entry)": "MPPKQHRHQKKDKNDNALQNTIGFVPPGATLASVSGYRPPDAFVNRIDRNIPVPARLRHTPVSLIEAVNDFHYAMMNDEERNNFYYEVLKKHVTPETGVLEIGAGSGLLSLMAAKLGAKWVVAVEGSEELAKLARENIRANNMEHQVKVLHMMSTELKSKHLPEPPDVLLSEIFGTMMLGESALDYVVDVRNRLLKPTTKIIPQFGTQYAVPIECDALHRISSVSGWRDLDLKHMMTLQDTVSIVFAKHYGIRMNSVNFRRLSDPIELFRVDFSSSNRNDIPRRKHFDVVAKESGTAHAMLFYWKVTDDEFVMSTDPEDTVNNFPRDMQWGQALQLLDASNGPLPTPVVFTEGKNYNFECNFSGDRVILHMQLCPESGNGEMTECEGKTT", "assay": "SAHH-coupled selectivity assay, PRMT7", "type": "biochemical"}, "[10]": {"target": "NTMT2 (Homo sapiens, UniProt Q5VVY1)", "sequence (Q5VVY1 whole entry)": "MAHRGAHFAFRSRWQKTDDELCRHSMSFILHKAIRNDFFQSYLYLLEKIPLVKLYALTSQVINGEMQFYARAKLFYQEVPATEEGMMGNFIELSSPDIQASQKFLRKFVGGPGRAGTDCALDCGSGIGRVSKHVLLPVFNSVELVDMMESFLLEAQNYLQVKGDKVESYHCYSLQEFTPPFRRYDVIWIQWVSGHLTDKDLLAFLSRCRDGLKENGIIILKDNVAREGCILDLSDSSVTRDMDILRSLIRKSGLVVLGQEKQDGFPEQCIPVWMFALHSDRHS", "assay": "SAM-dependent methyltransferase panel", "type": "biochemical", "conditions": "single dose of 50 μM"}, "[11]": {"system": "me3-RCC1 and me3-SET in HEK293 cells", "conditions": "cited from earlier work"}, "[12]": {"target": "T5, GCS (Homo sapiens, UniProt Q16739)", "T5 sequence (Q16739 1-394)": "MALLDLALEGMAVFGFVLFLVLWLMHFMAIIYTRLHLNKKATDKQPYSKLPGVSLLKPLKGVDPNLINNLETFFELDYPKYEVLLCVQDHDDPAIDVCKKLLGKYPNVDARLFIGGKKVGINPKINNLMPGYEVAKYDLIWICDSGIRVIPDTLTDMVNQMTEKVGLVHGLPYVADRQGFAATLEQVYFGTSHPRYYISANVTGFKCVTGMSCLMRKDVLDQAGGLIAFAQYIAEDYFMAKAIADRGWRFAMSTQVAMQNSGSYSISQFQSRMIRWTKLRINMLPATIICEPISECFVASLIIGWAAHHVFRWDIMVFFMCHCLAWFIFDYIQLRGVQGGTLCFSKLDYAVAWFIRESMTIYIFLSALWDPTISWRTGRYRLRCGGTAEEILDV", "type": "cell-based", "conditions": "30 nM, HCT116 cells"}}, "note": "Where two headings read alike, the source gives them in different places."}
{"smiles": "CCCN1CCC[C@H](OC(=O)NC(C)(C)c2csc(-c3ccc(F)cc3)n2)C1", "note": "[Compound 6, (S)-1-propylpiperidin-3-yl (2-(2-(4-Fluorophenyl)thiazol-4-yl)propan-2-yl)carbamate]", "values": [{"measurement": "fold loss of potency compared to venglustat", "setting": "[1]; NTMT1 IC50", "value": "over 40 fold"}]}
{"smiles": "CC(C)(C(=O)N[C@@H]1CN2CCC1CC2)c1csc(-c2ccc(F)cc2)n1", "note": "[Compound 10, 2-(2-(4-Fluorophenyl)thiazol-4-yl)-2-methyl-N-(quinuclidin-3-yl)propenamide]", "values": [{"measurement": "NTMT1 inhibition (in words)", "setting": "[1]", "value": "did not show any inhibition"}]}
{"smiles": "CC(C)(NC(=O)Oc1cccnc1)c1csc(-c2ccc(F)cc2)n1", "note": "[Compound 8, Pyridin-3-yl (2-(2-(4-Fluorophenyl)thiazol-4-yl)propan-2-yl)carbamate]", "values": [{"measurement": "NTMT1 inhibition (in words)", "setting": "[1]", "value": "null activity"}]}
{"smiles": "CC(C)(NC(=O)N[C@@H]1CN2CCC1CC2)c1csc(-c2ccc(F)cc2)n1", "note": "[Compound 9, 1-(2-(2-(4-Fluorophenyl)thiazol-4-yl)propan-2-yl)-3-(quinuclidin-3-yl)urea]", "values": [{"measurement": "fold loss of potency compared to venglustat", "setting": "[1]; NTMT1 IC50", "value": "> 100", "unit": "fold"}]}
{"smiles": "CN1CCC[C@H](OC(=O)NC(C)(C)c2csc(-c3ccc(F)cc3)n2)C1", "note": "[Compound 5, (S)-1-methylpiperidin-3-yl (2-(2-(4-Fluorophenyl)thiazol-4-yl)propan-2-yl)carbamate]", "values": [{"measurement": "fold loss of potency compared to venglustat", "setting": "[1]; NTMT1 IC50", "value": "over 40 fold"}]}
{"smiles": "CC(C)(NC(=O)O[C@@H]1CN2CCC1CC2)c1csc(-c2ccc(Cl)c(O)c2)n1", "note": "[YD2200]", "values": [{"measurement": "effect on me3-RCC1 and me3-SET", "setting": "[2]; 1 μM", "value": "significantly reduces"}, {"measurement": "IC50", "setting": "[2]; read-out: approximate IC50, me3-RCC1 and me3-SET", "value": "~300", "unit": "nM"}]}
{"smiles": "CC(C)(NC(=O)OCCN1CCCCC1)c1csc(-c2ccc(F)cc2)n1", "note": "[Compound 7, 2-(Piperidin-1-yl)ethyl (2-(2-(4-Fluorophenyl)thiazol-4-yl)propan-2-yl)carbamate]", "values": [{"measurement": "fold reduction compared to 6", "setting": "[1]; NTMT1 IC50", "value": "> 5", "unit": "fold"}]}
{"smiles": "CC(C)(NC(=O)O[C@@H]1CN2CCC1CC2)c1csc(-c2ccc(F)c(O)c2)n1", "note": "[GD433]", "values": [{"measurement": "inhibition", "setting": "[3]; 10 μM", "value": "no significant inhibition"}, {"measurement": "inhibition", "setting": "[3]; 30 μM", "value": "no significant inhibition"}, {"measurement": "inhibition", "setting": "[3]; 100 μM", "value": "did not exhibit inhibition"}, {"measurement": "inhibition", "setting": "[4]; 10 μM", "value": "no significant inhibition"}, {"measurement": "inhibition", "setting": "[4]; 30 μM", "value": "no significant inhibition"}, {"measurement": "inhibition", "setting": "[4]; 100 μM", "value": "did not exhibit inhibition"}, {"measurement": "inhibition", "setting": "[5]; 10 μM", "value": "no significant inhibition"}, {"measurement": "inhibition", "setting": "[5]; 30 μM", "value": "no significant inhibition"}, {"measurement": "inhibition", "setting": "[5]; 100 μM", "value": "did not exhibit inhibition"}, {"measurement": "inhibition", "setting": "[6]; 10 μM", "value": "no significant inhibition"}, {"measurement": "inhibition", "setting": "[6]; 30 μM", "value": "no significant inhibition"}, {"measurement": "inhibition", "setting": "[6]; 100 μM", "value": 50, "unit": "%"}, {"measurement": "inhibition", "setting": "[7]; 10 μM", "value": "no significant inhibition"}, {"measurement": "inhibition", "setting": "[7]; 30 μM", "value": "no significant inhibition"}, {"measurement": "inhibition", "setting": "[7]; 100 μM", "value": "did not exhibit inhibition"}, {"measurement": "inhibition", "setting": "[8]", "value": "~ 25%"}, {"measurement": "inhibition", "setting": "[9]; 10 μM", "value": "no significant inhibition"}, {"measurement": "inhibition", "setting": "[9]; 30 μM", "value": "no significant inhibition"}, {"measurement": "inhibition", "setting": "[9]; 100 μM", "value": "did not exhibit inhibition"}, {"measurement": "inhibition", "setting": "[10]", "value": "potently inhibited"}]}
{"smiles": "CC(C)(NC(=O)O[C@@H]1CN2CCC1CC2)c1csc(-c2ccc(F)cc2)n1", "note": "[venglustat, (S)-quinuclidin-3-yl (2-(2-(4-Fluorophenyl)thiazol-4-yl)propan-2-yl)carbamate]", "values": [{"measurement": "IC50", "setting": "[11]; cellular inhibition assay", "value": 500, "unit": "nM"}, {"measurement": "IC50", "setting": "[11]; read-out: approximate IC50, me3-RCC1 and me3-SET, HEK293 cells", "value": "~300", "unit": "nM"}, {"measurement": "inhibition of cellular GCS activity", "setting": "[12]", "value": "significantly inhibits"}]}
{"smiles": "CC(C)(NC(=O)O[C@@H]1CN2CCC1CC2)c1csc(-c2cncnc2)n1", "note": "[YD2160]", "values": [{"measurement": "change in me3-RCC1 or me3-SET", "setting": "[2]; up to 30 μM", "value": "did not induce any change"}]}
